viability, T/C and IC50 data for 15 compounds are collected here from PubChem BioAssay AID2060326 (Molecular Pharmacology Branch, DTP, NCI, 2025).

Structures are written as SMILES. “And” between values parts separate entries of the source, which are not always exact repeats. Equal entries are not always repeated.

In this test the test system is MDA-MB-468 multi-cell spheroids, viability. The test is described as follows: Anticancer human tumor MDA-MB-468 cell line growth inhibition [IpAb].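 For all read-outs here: spheroids exposed to agents for seven days.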 The conditions noted are these: for viability, T/C: stronger effect = lower value. The source says: Combinatorial screen of targeted agents with ipatasertib and abemaciclib in multi-cell type tumor spheroids
A high-throughput screen of multi-cell type tumor spheroids was designed to identify active combinations of targeted small molecules and ipatasertib or abemaciclib. Complex spheroids include a stromal component modeled by human endothelial cells (HUVEC) and fibroblasts modeled by human mesenchymal stem cells (MSCs). The concentration ranges selected for each drug and investigational agent were based upon clinically achievable concentrations if the clinical Cmax of the agent was known.
Compounds. The drugs and investigational agents: ipatasertib (NSC767898), abemaciclib(NSC768073), selumetinib (NSC741078), trametinib (758246), adavosertib (NSC754352), everolimus (NSC733504), sapanisertib (NSC764658), vemurafenib (NSC761431), venetoclax (NSC766270), copanlisib (NSC809693), apelisib (NSC765974), palbociblib (NSC758247), vemurafenib (NSC761431), dabrafenib (NSC764134), ravoxertinib (NSC781343), BMS-387032 (NSC767048), sotorasib (NSC818433), talazoparib (NSC767125) and afursertib (NSC778305), were obtained from the National Cancer Institute (NCI) Developmental Therapeutics Program Chemical Repository. The FDA-approved anticancer drug set is available from the NCI Developmental Therapeutics Program. […] The stock solutions were prepared in dimethyl sulfoxide (DMSO, Sigma-Aldrich, St. Louis, MO, cat. D2650) at 800-fold the tested concentration and stored at -70 degrees C prior to their use. All drugs and investigational agents were tested over a range starting from a high concentration at or near the clinical Cmax and decreasing in half-log increments. If the clinical Cmax for an agent had not been determined, the highest concentration tested was 10 microM.
NCI60 Cell Culture. NCI60 cell lines were obtained from the NCI Developmental Therapeutics Program Tumor Repository. For each lot of cells, the Repository performed Applied Biosystems AmpFLSTR Identifiler testing with PCR amplification to confirm consistency with the published Identifier STR profile for each cell line. Cells were kept in continuous culture for no more than 20 passages. The optimal seeding densities for each of the cell lines at each time point assessed were determined prior to performing the concentration response studies. Briefly, the NCI60 human tumor lines were grown as monolayers in RPMI 1640 medium supplemented with 10% FBS and 2 mmol/L L-glutamine.
An additional 9 lines were from the NCI60 cell line panel including MDA-MB-231 breast carcinoma, MDA-MB-468 breast carcinoma, MCF7 breast carcinoma, Hs578T breast carcinoma, MALME-3M melanoma, SK-MEL-2 melanoma, SK-OV-3 ovarian carcinoma, DU-145 prostate carcinoma, PC-3 prostate carcinoma, all cell lines along with major genetic alterations are listed on Table 2. Pooled donor human umbilical vein endothelial cells (HUVEC, Lonza, cat. CC-2519) and human mesenchymal stem cells (hMSC, Lonza, cat. PT-2501) were purchased from Lonza (Walkersville, MD).
PDMR cell lines were grown in complete medium (DC medium): Dulbecco's modified Eagle's medium (DMEM)/F12 supplemented with 5% fetal bovine serum (FBS), 2 mM L-glutamine, 100 U/mL penicillin and 100 µg/ml streptomycin, 0.4 µg/ml hydrocortisone, 10 ng/ml epidermal growth factor (EGF) recombinant human protein, 24 µg/mL adenine, and 0.1 mg/mL primocin. During culture from frozen stock vials, PDMR cells were cultured in the same medium containing 10 µM Y-27632 (see Table 3). The PDCs were cultured in complete DMEM/F12 media without 10 microM Y-27632 dihydrochloride for at least two passages prior to the screen. The pooled donor HUVEC and hMSC were cultured in endothelial cell growth medium 2 (PromoCell, Heidelberg, Germany, cat. C-22011) and mesenchymal stem cell growth medium 2 (PromoCell, cat. C-28009), respectively. For all experiments, HUVEC and hMSC were used at passages </=5.
[…]

[1] abbreviates: compound alone, run of 05/18/2021.

With `C=CC(=O)N1CCN(c2nc(=O)n(-c3c(C)ccnc3C(C)C)c3nc(-c4c(O)cccc4F)c(F)cc23)C(C)C1` (stereo not drawn), the viability, T/C (usually the ratio of treated to control) is 90.5% and 115% (compound 0.0316 µM); 103% and 119% (compound 0.1 µM); 121% and 129% (compound 0.316 µM); 105% (compound 1 µM); 93.5% and 110% (compound 3.16 µM); 35.1% and 37.1% (compound 10 µM). Also, under “curve of compound”, the IC50 (usually the midpoint of a concentration-inhibition curve) is 7490 nM and 8200 nM.

Regarding `C=CCn1c(=O)c2cnc(Nc3ccc(N4CCN(C)CC4)cc3)nc2n1-c1cccc(C(C)(C)O)n1`, the viability, T/C (compound 0.0316 µM) was 80.6% and 99.8%; the viability, T/C (compound 0.1 µM) was 94.4% and 96.1%; the viability, T/C (compound 0.316 µM) was 77.9% and 78.9%; the viability, T/C (compound 1 µM) is 6.3% and 7.75%; the viability, T/C (compound 3.16 µM) is 3.1% and 3.7%; the viability, T/C (compound 10 µM) was 2.62% and 3.3%. Also, under “curve of compound”, the IC50 is 495 nM and 505 nM.

For `CC(=O)c1c(C)c2cnc(Nc3ccc(N4CCNCC4)cn3)nc2n(C2CCCC2)c1=O`, the viability, T/C reads like this: (compound 0.000949 µM) 93.7% and 99%; (compound 0.003 µM) 91.4% and 97.5%; (compound 0.00949 µM) 92% and 93.8%; (compound 0.03 µM) 88.1% and 91.8%; (compound 0.0949 µM) 92.4% and 81.4%; (compound 0.3 µM) 90.2% and 73.4%. In addition, the IC50 (curve of compound) is above 300 nM.

Turning to `CC(C)(C)c1cnc(CSc2cnc(NC(=O)C3CCNCC3)s2)o1`, the viability, T/C is 90.5% and 95.1% (compound 0.00949 µM); 98.2% and 96.8% (compound 0.03 µM); 44.3% and 64.7% (compound 0.0949 µM); 0.55% and 0.39% (compound 0.3 µM); 0.44% and 0.29% (compound 0.949 µM); 0.51% and 0.39% (compound 3 µM). Besides, under “curve of compound”, the IC50 is 83.2 nM and 123 nM.

For the compound `CC(C)NCC(C(=O)N1CCN(c2ncnc3c2C(C)CC3O)CC1)c1ccc(Cl)cc1` (stereo not drawn), the viability, T/C is 91.9% [middle of 13 runs] (compound 0.1 µM), 54.4% [middle of 13 runs] (compound 1 µM), 35.1% [middle of 13 runs] (compound 3.16 µM) and 18.4% [middle of 13 runs] (compound 10 µM). The IC50 under setting [1] is 1.25 µM [middle of 12 runs].

Regarding `CC(C)n1nc(-c2ccc3oc(N)nc3c2)c2c(N)ncnc21`, the viability, T/C is, setting by setting: (compound 0.000316 µM) 99% and 104%; (compound 0.001 µM) 84.2% and 89.2%; (compound 0.00316 µM) 74% and 80.1%; (compound 0.01 µM) 53.6% and 57.9%; (compound 0.0316 µM) 23.8% and 23.2%; (compound 0.1 µM) 9.32% and 10.4%. In addition, the IC50 (curve of compound) was 10.4 nM and 12 nM.

As for `CC1(C)CCC(CN2CCN(c3ccc(C(=O)NS(=O)(=O)c4ccc(NCC5CCOCC5)c([N+](=O)[O-])c4)c(Oc4cnc5[nH]ccc5c4)c3)CC2)=C(c2ccc(Cl)cc2)C1`, the viability, T/C is, setting by setting: (compound 0.0316 µM) 111% and 107%; (compound 0.1 µM) 106% and 94.5%; (compound 0.316 µM) 102% and 89.2%; (compound 1 µM) 95.9% and 85.8%; (compound 3.16 µM) 73% and 52.9%; (compound 10 µM) 10% and 5.86%. Moreover, for the setting “curve of compound”, the IC50 is 4770 nM and 3520 nM.

In the case of `CCCS(=O)(=O)Nc1ccc(F)c(C(=O)c2c[nH]c3ncc(-c4ccc(Cl)cc4)cc23)c1F`, the viability, T/C (compound 0.0316 µM) was 99.5% and 107%; the viability, T/C (compound 0.1 µM) was 99% and 91.6%; the viability, T/C (compound 0.316 µM) is 95% and 103%; the viability, T/C (compound 1 µM) is 100% and 109%; the viability, T/C (compound 3.16 µM) is 97.5% and 106%; the viability, T/C (compound 10 µM) was 66.3% and 75.8%. Where the note is “curve of compound”, the IC50 is above 10000 nM.

Regarding `CCN1CCN(Cc2ccc(Nc3ncc(F)c(-c4cc(F)c5nc(C)n(C(C)C)c5c4)n3)nc2)CC1`, the viability, T/C (compound 0.1 µM) is 102% [middle of 13 runs]. Moreover, under setting [1], the IC50 is above 1000 nM.

For `COc1c(OCCCN2CCOCC2)ccc2c3n(c(=NC(=O)c4cnc(N)nc4)nc12)CCN3`, the viability, T/C is 89% and 95.1% (compound 0.00316 µM); 95% and 91.5% (compound 0.01 µM); 73% and 72.7% (compound 0.0316 µM); 63.9% and 66.5% (compound 0.1 µM); 25.6% and 23.6% (compound 0.316 µM); 4.06% and 3.22% (compound 1 µM). Besides, the IC50 (curve of compound) is 141 nM and 139 nM.

As to `Cc1nc(NC(=O)N2CCCC2C(N)=O)sc1-c1ccnc(C(C)(C)C(F)(F)F)c1` (stereo not drawn), the viability, T/C reads like this: (compound 0.0316 µM) 86.9% and 91.9%; (compound 0.1 µM) 93% and 82.5%; (compound 0.316 µM) 79.2% and 88.1%; (compound 1 µM) 64.3% and 95%; (compound 3.16 µM) 84% and 94.3%; (compound 10 µM) 25.2% and 31.6%. Moreover, the IC50 (curve of compound) is 6020 nM and 6990 nM.

For the compound `Cn1cnc2c(F)c(Nc3ccc(Br)cc3Cl)c(C(=O)NOCCO)cc21`, the viability, T/C runs as follows: (compound 0.00949 µM) 87.3% and 84.9%; (compound 0.03 µM) 92.3% and 85%; (compound 0.0949 µM) 65.1% and 77.8%; (compound 0.3 µM) 72% and 68.5%; (compound 0.949 µM) 59.6% and 59.1%; (compound 3 µM) 39.2% and 26.2%. Also, under “curve of compound”, the half-maximal inhibitory concentration (IC50) is 1560 nM and 1200 nM.

As to `Cn1ncc(Cl)c1-c1cc(C(=O)NC(CN)Cc2cccc(F)c2)sc1Cl` (stereo not drawn), the viability, T/C was 82.3% and 88.3% (compound 0.0316 µM); 61.5% and 72.7% (compound 0.1 µM); 55.5% and 61.2% (compound 0.316 µM); 32.6% and 32.4% (compound 1 µM); 15.9% and 11.8% (compound 3.16 µM); 0.22% and 0.21% (compound 10 µM). In addition, for the setting “curve of compound”, the IC50 is 330 nM and 460 nM.

In the case of `Cn1nccc1Nc1nccc(-c2ccn(C(CO)c3ccc(Cl)c(F)c3)c(=O)c2)n1` (stereo not drawn), the viability, T/C is, setting by setting: (compound 0.0316 µM) 84.7% and 94.8%; (compound 0.1 µM) 91.9% and 98.6%; (compound 0.316 µM) 100% and 83.9%; (compound 1 µM) 84.2% and 81.8%; (compound 3.16 µM) 68.4% and 64.4%; (compound 10 µM) 5.12% and 13.2%. Moreover, the IC50 (curve of compound) is 4400 nM and 4230 nM.

Take `Cn1ncnc1[C@H]1c2n[nH]c(=O)c3cc(F)cc(c23)N[C@@H]1c1ccc(F)cc1`: the viability, T/C is, setting by setting: (compound 0.000316 µM) 121% and 90.6%; (compound 0.001 µM) 105% and 98.7%; (compound 0.00316 µM) 113% and 81%; (compound 0.01 µM) 103% and 93.2%; (compound 0.0316 µM) 84.2% and 83.9%; (compound 0.1 µM) 68.8% and 65.7%. For the setting “curve of compound”, the IC50 is above 100 nM.
